These results are taken from ChEMBL document CHEMBL4229348, “Structure-activity relationship studies of ultra-short peptides with potent activities against fluconazole-resistant Candida albicans” (Eur J Med Chem, 2018).

≈ marks a conversion by molar mass, not a printed value. Calls of active or inactive are those of the source. The rule behind the calls is not given here. Peptide text beside a SMILES is read from it.

Series [1] has as its system Candida albicans. Nature of the series: Antifungal activity against fluconazole-resistant Candida albicans ATCC 64550 after overnight incubation by CLSI broth microdilution method. The format is functional. In general terms: Broth dilution looks for growth in wells or tubes with falling amounts of substance.
Series [2] in a line: Retention time of the compound at 0.4 mM by HPLC analysis. The format is physicochemical. The conditions noted are these: 400 µM.
For series [3], the system named is Candida albicans. Nature of the series: Antifungal activity against fluconazole-resistant Candida albicans ATCC MYA-573 after overnight incubation by CLSI broth microdilution method. The format is functional.
In series [4] the test system is Candida albicans. Nature of the series: Antifungal activity against fluconazole-resistant Candida albicans ATCC 64124 after overnight incubation by CLSI broth microdilution method. The format is functional.
Series [5] deals with Candida albicans. Nature of the series: Antifungal activity against fluconazole-resistant Candida albicans ATCC 96901 after overnight incubation by CLSI broth microdilution method. The format is functional.
The test system of series [6] is Candida albicans. Nature of the series: Antifungal activity against fluconazole-resistant Candida albicans ATCC 200955 after overnight incubation by CLSI broth microdilution method. The format is functional.
For series [7], the system named is Candida albicans. Nature of the series: Antifungal activity against fluconazole-resistant Candida albicans NUH-K6004 after overnight incubation by CLSI broth microdilution method. The series is classed as functional.
Series [8] concerns Candida albicans. As to the kind of experiment: Antifungal activity against fluconazole-resistant Candida albicans TTSH-CALB01 after overnight incubation by CLSI broth microdilution method. The series is classed as functional.
Series [9] has as its system Candida albicans. As to the kind of experiment: Antifungal activity against fluconazole-resistant Candida albicans TTSH-CALB02 after overnight incubation by CLSI broth microdilution method. The format is functional.
For series [10], the system named is Saccharomyces cerevisiae. As to the kind of experiment: Induction of membrane permeabilization in Saccharomyces cerevisiae BY4743 assessed as propidium iodide uptake at 23 uM preincubated for 2.5 hrs followed by propidium iodide addition and measured after 20 mins by bright-field and fluorescence microscopic analysis (reference value: 98%). The series is classed as functional.

For series [11], the system named is Candida albicans. Nature of the series: Fungicidal activity against fluconazole-resistant Candida albicans ATCC 64550 at 4 times MIC incubated for overnight flowed by replating and measured after 24 hrs. The series is classed as functional, organism-based.
For a further series, the system named is NHDF. As to the kind of experiment: Cytotoxicity against NHDF assessed as reduction in cell viability up to 200 uM after 5 days by CellTiter-Glo assay. The series is classed as cell-based. The conditions noted are these: human, 120 h. (In general: ATP-based viability assays read luminescence as a measure of living cells.)
Series [12] concerns Saccharomyces cerevisiae. As to the kind of experiment: Induction of membrane permeabilization in Saccharomyces cerevisiae BY4743 assessed as propidium iodide uptake at 46 uM preincubated for 2.5 hrs followed by propidium iodide addition and measured after 20 mins by bright-field and fluorescence microscopic analysis (reference value: 98%). The format is functional.
The test system of series [13] is Saccharomyces cerevisiae. Nature of the series: Growth inhibition of Saccharomyces cerevisiae BY4743 incubated for 16 to 24 hrs. The format is functional.
Series [14] is described as follows: Cytotoxicity against NHDF assessed as reduction in cell viability after 5 days by CellTiter-Glo assay. The series is classed as cell-based. As to conditions: human, NHDF cells.
The nature of series [15]: Cytotoxicity against human bone marrow cells assessed as inhibition of colony formation. The format is cell-based, Bone marrow cell.
Series [16] has as its system Candida albicans. Nature of the series: Fungistatic activity against fluconazole-resistant Candida albicans ATCC 64550 at 4 times MIC incubated for overnight flowed by replating and measured after 24 hrs. The format is functional, organism-based.
In series [17] the test system is Candida albicans. Nature of the series: Potency index, ratio of omiganan MIC to compound MIC for antifungal activity against fluconazole-resistant Candida albicans ATCC 64550. The series is classed as functional.
In series [18] the test system is Candida albicans. As to the kind of experiment: Antifungal activity against fluconazole-susceptible Candida albicans. The series is classed as functional.

By MIC is commonly meant the lowest concentration found to suppress growth. Usually GI50 stands for the concentration giving 50% growth inhibition.

`CCCC[C@H](NC(=O)[C@H](CCCCN)NC(=O)[C@H](CCCC)NC(=O)[C@H](CCCCN)NC(=O)[C@H](CCCC)NC(=O)[C@H](CCCCN)NC(=O)[C@@H](N)CCCC)C(=O)N[C@@H](CCCCN)C(N)=O` (HELM PEPTIDE1{[Nle].K.[Nle].K.[Nle].K.[Nle].K.[am]}$$$$V2.0): the minimal inhibitory concentration (MIC) with Candida albicans [1] is 1.56 µM (≈ 1.53 µg/mL); in the series with Candida albicans [3] it was 3.13 µM (≈ 3.07 µg/mL); in the series on Candida albicans [4], 3.13 µM (≈ 3.07 µg/mL); against Candida albicans [5], 1.56 µM (≈ 1.53 µg/mL); against Candida albicans [6], 1.56 µM (≈ 1.53 µg/mL); against Candida albicans [7], 1.56 µM (≈ 1.53 µg/mL). The minimal inhibitory concentration (MIC) against Candida albicans [8] and against Candida albicans [9] was 1.56 µM (≈ 1.53 µg/mL) each time. Further, the Retention_time in series [2] is on record as 14 min. In addition, the Activity in the series on Saccharomyces cerevisiae [10] is 75%; in the series with NHDF, “Non-Toxic”; with Saccharomyces cerevisiae [12] it was 100%. The outcome in the series on Candida albicans [11] was Active. In the series with Saccharomyces cerevisiae [13], it took 5.75 µM to inhibit growth by half (GI50). Moreover, the TGI in the series with Saccharomyces cerevisiae [13] (read-out: GI100) amounted to 5.75 µM.
Regarding `OC(Cn1cncn1)(Cn1cncn1)c1ccc(F)cc1F` [FLUCONAZOLE], the minimal inhibitory concentration (MIC) in the series with Candida albicans [1], against Candida albicans [3], in the series with Candida albicans [4], against Candida albicans [5], in the series with Candida albicans [6] and in the series with Candida albicans [7] was greater than 100 µM throughout. Besides, the MIC in the series with Candida albicans [8] and with Candida albicans [9] was greater than 100 µM each time.
Regarding `Clc1ccc(COC(Cn2ccnc2)c2ccc(Cl)cc2Cl)c(Cl)c1` (stereo not given) [MICONAZOLE], the MIC turned out to be 12.5 µM (≈ 5.2 µg/mL) against Candida albicans [1]; 6.25 µM (≈ 2.6 µg/mL) in the series with Candida albicans [3]; 12.5 µM (≈ 5.2 µg/mL) with Candida albicans [4]; 6.25 µM (≈ 2.6 µg/mL) in the series with Candida albicans [5]; 12.5 µM (≈ 5.2 µg/mL) in the series with Candida albicans [6]; 12.5 µM (≈ 5.2 µg/mL) against Candida albicans [7]. The MIC against Candida albicans [8] and against Candida albicans [9] was 12.5 µM (≈ 5.2 µg/mL) throughout. Further, the concentration for 50% growth inhibition (GI50) at 120 h in series [14] was 10.3 µM. Also, in [15], the GI50 was 12.8 µM. Besides, the result in the series on Candida albicans [16] was Active.
Regarding `CC(O)CO` (stereo not given) [PROPYLENE GLYCOL], in the series on NHDF, the Activity entry was “Non-Toxic”.
For the compound H-IK(Ac)IK(Ac)IK(Ac)IK(Ac)-NH2, the MIC against Candida albicans [1] was greater than 100 µM. The compound further displayed a Retention_time in series [2] of 22.9 min.
Taken in the same sequence, the figures for H-IKAKIKIK-NH2 were 6.25 µM and 11.8 min.
Taken in the same sequence, the figures for H-IKIAIKIK-NH2 were 12.5 µM and 13.8 min.
In turn, H-IKIKAKIK-NH2 yielded an MIC against Candida albicans [1] of 6.25 µM. For the same compound, the Retention_time in series [2] is given as 11.8 min.
In the series on Candida albicans [1], H-IKIKIAIK-NH2 registered an MIC of 12.5 µM. The Retention_time in series [2] was 13.8 min.
On the same counts, the results for H-IKIKIKAK-NH2 are 6.25 µM and 12 min.
Taken in the same sequence, the figures for H-IKIKIKIA-NH2 were 12.5 µM and 13.9 min.
Consider H-IKIKIKIK-NH2, for which the MIC was determined as 3.13 µM against Candida albicans [1] and 1.56 µM in the series with Candida albicans [18]. This compound showed a Retention_time in [2] of 13.4 min. The Ratio in the series on Candida albicans [17] worked out at 16.
In the series with Candida albicans [1], H-IKIKIKIK-OH showed a minimal inhibitory concentration (MIC) of 12.5 µM. For the same compound, the Retention_time in [2] amounted to 13.5 min.
On the same counts, the results for H-IRIRIRIR-NH2 are 12.5 µM and 13.9 min.
Turning to H-KIKIKIKI-NH2, it took 3.13 µM to inhibit growth against Candida albicans [1] (MIC). In series [2], this compound showed a Retention_time of 14 min.
Taken in the same sequence, the figures for H-KKIIKKII-NH2 were greater than 100 µM and 12.6 min.
Taken in the same sequence, the figures for H-KKKKKKKK-NH2 were greater than 100 µM and 2 min.
Turning to H-KLKLK-NH2, the minimum inhibitory concentration (MIC) in the series with Candida albicans [1] is greater than 100 µM. For the same compound, the Retention_time in series [2] stood at 11.2 min.
Taken in the same sequence, the figures for H-KLKLKLK-NH2 were 25 µM and 12.7 min.
Taken in the same sequence, the figures for H-KLKLKLKL-NH2 were 3.13 µM and 14.4 min.
Taken in the same sequence, the figures for H-KLKLKLKLK-NH2 were 3.13 µM and 13.6 min.
In the series on Candida albicans [1], H-LKLKL-NH2 showed an MIC greater than 100 µM. The Retention_time in series [2] amounted to 13.7 min.
In turn, H-LKLKLK-NH2 came in with an MIC in the series on Candida albicans [1] of 100 µM. Besides, in [2], the Retention_time is on record as 12.8 min.
Taken in the same sequence, the figures for H-LKLKLKL-NH2 were 50 µM and 14.5 min.
On the same counts, the results for H-LKLKLKLKL-NH2 are 3.13 µM and 15.1 min.
Taken in the same sequence, the figures for H-LKLKLKLKLK-NH2 were 3.13 µM and 14.5 min.
As for H-VKVKVKVK-NH2, in the series on Candida albicans [1], inhibition of growth (MIC) required 6.25 µM. Moreover, in series [2], the Retention_time is 11.1 min.
On to H-WKWKWKWK-NH2, for which the MIC in the series with Candida albicans [1] is greater than 100 µM. Further, the Retention_time in series [2] was determined as 15.9 min.
